Converted amounts (≈) assume the structure as drawn. The source made the active and inactive calls. The rule behind the calls is not given here.
Key:
P388 = test: In vivo cytotoxicity against mouse P388 cells at 50 mg/kg/day relative to control; assay type: functional
KB = test: Cytotoxicity against human KB cells; assay type: functional; details: read-out: ED50 (the source's name)
Homo sapiens [1] = species: Homo sapiens; test: Inhibition of human DNA topoisomerase 2 at 200 uM
Homo sapiens [2] = species: Homo sapiens; test: Inhibition of human DNA topoisomerase 2 at 400 uM

Compound	T/C (P388) [%]	EC50 (KB) [µg/mL]	inhibition (Homo sapiens [1])	inhibition (Homo sapiens [2]) [%]
COc1cc2c(OC)c3c(c(-c4ccc5c(c4)OCO5)c2cc1OC)C(=O)OC3 [JUSTICIDIN A]	150	< 1	–	–
CCCOc1c2c(c(-c3cc(OC)c(OC)c(OC)c3)c3cc4c(cc13)OCO4)C(=O)OC2 [DEHYDROPODOPHYLLOTOXIN PROPYL ETHER]	–	4 (≈ 8.84 µM)	inactive	–
CCO[C@@H]1c2cc3c(cc2[C@@H](c2cc(OC)c(O)c(OC)c2)[C@H]2C(=O)OC[C@@H]21)OCO3	–	1.1 (≈ 2.57 µM)	–	25
CCOc1c2c(c(-c3cc(OC)c(OC)c(OC)c3)c3cc4c(cc13)OCO4)C(=O)OC2 [DEHYDROPODOPHYLLOTOXIN ETHYL ETHER]	–	4 (≈ 9.12 µM)	inactive	–
CCOc1c2c(c(-c3cc(OC)c(O)c(OC)c3)c3cc4c(cc13)OCO4)C(=O)OC2	–	4 (≈ 9.42 µM)	inactive	–
COc1cc2c(O)c3c(c(-c4ccc5c(c4)OCO5)c2cc1OC)C(=O)OC3 [DIPHYLLIN]	150	< 1	–	–
COc1cc([C@@H]2c3cc4c(cc3[C@@H](O[C@@H]3O[C@@H]5CO[C@@H](C)O[C@H]5[C@H](O)[C@H]3O)[C@H]3COC(=O)[C@H]23)OCO4)cc(OC)c1O [ETOPOSIDE]	–	0.1 (≈ 0.17 µM)	80%	85
COc1cc(-c2c3c(c(O)c4cc5c(cc24)OCO5)COC3=O)cc(OC)c1O	–	2.2 (≈ 5.55 µM)	inactive	–
COc1cc(-c2c3c(c(O)c4cc5c(cc24)OCO5)COC3=O)cc(OC)c1OC [DEHYDROPODOPHYLLOTOXIN]	–	4 (≈ 9.75 µM)	inactive	–
COc1cc([C@@H]2c3cc4c(cc3[C@@H](O)[C@H]3COC(=O)[C@H]23)OCO4)cc(OC)c1O [4'-DEMETHYLEPIPODOPHYLLOTOXIN]	–	0.1 (≈ 0.25 µM)	–	50
